“And” between values parts separate entries of the source, which are not always exact repeats. Equal values may be shown once. Some results are limits rather than exact numbers.

In the test the test system is 186277-243-T-J2-PDC multi-cell spheroid viability. Nature of the test: Anticancer human tumor 186277-243-T-J2-PDC patient-derived colon adenocarcinoma cell line growth inhibition [PI3K]. Conditions: for viability, T/C: stronger effect = lower value. In a few lines:
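Complex 3D spheroids (cancer cells + endothelial HUVEC + mesenchymal stem cells); drug pairs of targeted agent x inavolisib/alpelisib/duvelisib/copanlisib; half-log series from ~Cmax, max 10 microM if Cmax unknown; endpoint viability.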
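Note: spheroids exposed to compounds for seven days before viability reading.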
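Throughout, for viability, T/C: 100% = DMSO vehicle control viability.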

By IC50 is commonly meant the concentration that gives 50% inhibition. The viability, T/C is the result in the treated group divided by that in the control group, in per cent. For the compound `CNC(=O)c1ccc(N2C(=S)N(c3ccc(C#N)c(C(F)(F)F)c3)C(=O)C2(C)C)cc1F` + CC(Nc1ccc2c(c1)OCCn1cc(N3C(=O)OCC3C(F)F)nc1-2)C(N)=O, the IC50 by setting is: (curve of first compound, second compound 0.00316 µM) greater than 10 µM; (curve of first compound, second compound 0.01 µM) greater than 10 µM; (curve of first compound, second compound 0.0316 µM) greater than 10 µM; (curve of first compound, second compound 0.1 µM) greater than 10 µM; (curve of first compound, second compound 0.316 µM) greater than 10 µM; (curve of first compound, second compound 1 µM) 0.356 µM. Also, the viability, T/C by setting is: (second compound 0.00316 µM, first compound 0.0316 µM) 109%; (second compound 0.00316 µM, first compound 0.1 µM) 95.8%; (second compound 0.00316 µM, first compound 0.316 µM) 90.8%; (second compound 0.00316 µM, first compound 1 µM) 98%; (second compound 0.00316 µM, first compound 3.16 µM) 109%; (second compound 0.00316 µM, first compound 10 µM) 92.2%. In addition, the viability, T/C by setting is: (second compound 0.01 µM, first compound 0.0316 µM) 98%; (second compound 0.01 µM, first compound 0.1 µM) 83.8%; (second compound 0.01 µM, first compound 0.316 µM) 99.3%; (second compound 0.01 µM, first compound 1 µM) 89.4%; (second compound 0.01 µM, first compound 3.16 µM) 93.7%; (second compound 0.01 µM, first compound 10 µM) 106%. The viability, T/C was 110% (second compound 0.0316 µM, first compound 0.0316 µM); 111% (second compound 0.0316 µM, first compound 0.1 µM); 94.1% (second compound 0.0316 µM, first compound 0.316 µM); 113% (second compound 0.0316 µM, first compound 1 µM); 113% (second compound 0.0316 µM, first compound 3.16 µM); 99.2% (second compound 0.0316 µM, first compound 10 µM). For the same compound, the viability, T/C was 105% (second compound 0.1 µM, first compound 0.0316 µM); 95.5% (second compound 0.1 µM, first compound 0.1 µM); 100% (second compound 0.1 µM, first compound 0.316 µM); 112% (second compound 0.1 µM, first compound 1 µM); 90.2% (second compound 0.1 µM, first compound 3.16 µM); 86.1% (second compound 0.1 µM, first compound 10 µM). The viability, T/C (second compound 0.316 µM, first compound 0.0316 µM) is 86.6%; the viability, T/C (second compound 0.316 µM, first compound 0.1 µM) was 80%; the viability, T/C (second compound 0.316 µM, first compound 0.316 µM) was 68.5%; the viability, T/C (second compound 0.316 µM, first compound 1 µM) was 79.4%; the viability, T/C (second compound 0.316 µM, first compound 3.16 µM) was 73.7%; the viability, T/C (second compound 0.316 µM, first compound 10 µM) is 63.4%. Further, the viability, T/C is 58% (second compound 1 µM, first compound 0.0316 µM); 50.4% (second compound 1 µM, first compound 0.1 µM); 45.1% (second compound 1 µM, first compound 0.316 µM); 51.6% (second compound 1 µM, first compound 1 µM); 49.6% (second compound 1 µM, first compound 3.16 µM); 38.5% (second compound 1 µM, first compound 10 µM).
For the compound `CC(C)n1nc(-c2ccc3oc(N)nc3c2)c2c(N)ncnc21`, the viability, T/C runs as follows: (compound 0.000316 µM) 98% [middle of 4 runs]; (compound 0.001 µM) 96.1% [middle of 4 runs]; (compound 0.00316 µM) 99.7% [middle of 4 runs]; (compound 0.0316 µM) 78.8% [middle of 4 runs]; (compound 0.1 µM) 29.6% and 31.3% (2×) and 27.9%. Under “curve of compound”, the IC50 was 63.7 nM [middle of 4 runs].

The values are drawn from PubChem BioAssay AID1963983 (Molecular Pharmacology Branch, DTP, NCI, 2024).
